# Reference: patent publication US8765791B2, “Method of treating cancer using a neuropeptide Y 5R (NP Y5R) antagonist” (University Health Network, priority 2008, dated 2014)
# How the values were obtained:
# [1] = test system: Hodgkin Lymphoma cells, HD-MYZ; assay: Hodgkin lymphoma xenograft model (Example 12); assay type: in vivo, NOD-SCID mice; conditions: 5 mg/kg i.p. 1/week, approximately 2 weeks
# Excerpt: Hodgkin lymphoma cells, HD-MYZ (1 million), were implanted s.c. on the right flank of NOD-SCID mice (Cat#001303, female, 4-6 weeks from Jackson laboratories, Bar Harbor, Me.). The mice were divided into four groups, 5 mice for each group. […] The tumor growth was monitored during the experiment. […] (FIG. 13)
# [2] = test system: Hodgkin Lymphoma cells, HD-MYZ; assay: Hodgkin lymphoma xenograft model, MK0557 vs AVASTIN (Example 14); assay type: in vivo, NOD-SCID mice; conditions: 5 mg/kg i.p. 1/week×3 weeks
# Excerpt: Hodgkin lymphoma cells, HD-MYZ, were implanted in NOD-SCID mice. […] Tumor volume and tumor growth were monitored during the experiment.
# [3] = test system: Breast cancer cells, MDA MB 468; assay: breast cancer xenograft model (Example 11); assay type: in vivo, SCID mice; conditions: 10 mg/kg i.p. 3/week, approximately 4 weeks
# Protocol: Breast cancer cells, MDA MB 468 (12 million), were injected subcutaneously (s.c.) on the neck of SCID mice (CB17, female, 4-6 weeks old) (Charles River, Wilmington, Mass.). The mice were divided into four groups, 5 mice for each group. The treatments were started when the tumor volume reached about 100 mm^3, day 22 after tumor implantation. […] The tumor sizes were monitored every 3 or 4 days. […] (FIG. 12)
# [4] = test system: Breast cancer cells, MDA MB 468; assay: breast cancer xenograft model, MK0557 and 5-FU (Example 15); assay type: in vivo, CB17-SCID; conditions: 5-FU alone, 30 mg/kg ip q.d.×5 days
# Protocol: Breast cancer cells, MDA MB 468, were injected into CB17-SCID. The treatments were started day 14 after tumor implantation. […] Tumor volume and tumor growth were monitored during the experiment.
# [5] = test system: Hodgkin Lymphoma cells, HD-MYZ; assay: Hodgkin's lymphoma xenograft model, MK-0557 and 200464 (Example 16); assay type: in vivo; conditions: for inhibition rate (tumor volume) / inhibition rate (tumor weight): versus vehicle
# Excerpt: Hodgkin lymphoma cells, HD-MYZ, were implanted in NOD-SCID mice, female, 4-6 weeks from Jackson's Laboratory (Maine). The treatments were started day 6 after tumor implantation. The mice were divided to six groups, 4-5 mice from each group. The treatment started with a tumor volume of about 70 mm3 after tumor implantation.
# [6] = group 2: 200464 20 mg/kg i.p. 3 times for each week
# [7] = group 3: 200464 40 mg/kg i.p. 3 times for each week
compound,measurement,setting,value
bevacizumab [AVASTIN®],tumor growth,[1],inhibited tumor growth
same,Mean Tumor Volume,[2],672.53±85.56 mm^3
same,Mean Tumor Weight,[2],0.33 ± 0.03 g
same,inhibition rate (tumor volume),[2]; versus vehicle,74.14%
same,inhibition rate (tumor weight),[2]; versus vehicle,86.96%
"O=c1[nH]cc(F)c(=O)[nH]1 [5-FU, 5-fluorouracil]",tumor growth,[3],inhibited tumor growth
same,Mean Tumor Volume,[4],434.44±56.63 mm^3
same,Mean Tumor Weight,[4],0.1892 ± 0.026 g
same,inhibition rate (tumor volume),[4]; versus vehicle,32.35%
same,inhibition rate (tumor weight),[4]; versus vehicle,26.55%
CC[C@@H]1C(=O)N(C)c2cnc(Nc3ccc(C(=O)NC4CCN(C)CC4)cc3OC)nc2N1C1CCCC1 [compound 200464],Mean Tumor Volume,[5]; [6],754.55+/−158.32 mm^3
same,Mean Tumor Weight,[5]; [6],0.8788 ± 0.2674 g
same,inhibition rate (tumor volume),[5]; [6],62.26%
same,inhibition rate (tumor weight),[5]; [6],5.42%
same,Mean Tumor Volume,[5]; [7],565.75+/−176.13 mm^3
same,Mean Tumor Weight,[5]; [7],0.5472 ± 0.2097 g
same,inhibition rate (tumor volume),[5]; [7],49.66%
same,inhibition rate (tumor weight),[5]; [7],41.11%
same,tolerability of the doses by the mice,"[5]; mouse, in vivo",well tolerated
